This note sets out measurements from the METLIN SMRT retention time set (Domingo-Almenara et al. 2019).

The data set in a line: gradient 5% acetonitrile 3 min, to 50% in 2 min, to 85% in 15 min, held 3 min, 100 µL/min. The conditions noted are these: column: Zorbax Extend-C18 2.1 x 50 mm; eluents: water / acetonitrile, 0.1% formic acid. In short, it runs like this:
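The system's dead and dwell volumes were 40 μL and 900 μL, with a Zorbax Extend-C18 column (2.1 × 50 mm, 1.8 μm) run at 100 μL/min in water and acetonitrile containing 0.1% formic acid each. Pure standards were analyzed in mixtures of ~100 molecules by HPLC–quadrupole time-of-flight mass spectrometry in positive and negative ionization mode. Retention time was assigned from computationally picked, manually inspected adduct peaks.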
The molecule `CN(C)CCNC(=O)CN1C(=O)C2CCCCN2c2ccc(S(=O)(=O)N3CCCC3)cc21` (stereo not given) returned an RP-LC retention time of 775 s.

For the molecule `Cc1noc(-c2ccc(=O)n(C(C)C(=O)NCc3cccs3)c2)n1` (stereo not given), the RP-LC retention time was determined as 646 s. As for `COc1ccc(-c2nc3cccnc3n2C2CCN(C(=O)Nc3cccc(OC)c3)C2)cc1` (stereo not given), the RP-LC retention time is 746 s. Take `O=C(Nc1cccc(OCc2nnc(-c3ccccc3)o2)c1)C1COc2ccccc2O1` (stereo not given): the RP-LC retention time is 1010 s.

Molecule `O=C(Nc1ccc(F)cc1F)Nc1c(-c2ccc(F)cc2)nc2ccccn12` returned an RP-LC retention time of 677 s. `Cc1nc2ccccc2c(=O)n1-c1ccc(NC(=O)C2CCN(S(=O)(=O)N3CCCC3)CC2)cc1` displayed an RP-LC retention time of 778 s. `COc1ccc(-c2cc(=O)c3cc(OC(=O)c4ccncc4)ccc3o2)cc1` yielded an RP-LC retention time of 832 s. To `COc1ccc(Cl)cc1C(=O)Nc1ccc(-c2nc(C)no2)cc1` belongs 719 s. Turning to `CCCN(CCC)c1ncc(NC(=O)c2ccc(Br)cc2)cc1C(=O)O`, the RP-LC retention time is 766 s. The value for `O=C(Cn1cccc(-c2nc(-c3ccc(Cl)cc3)no2)c1=O)N1CCCc2ccccc21` was 1040 s; that for `O=C(c1cccs1)N1[C@H]2CC[C@@H]1c1cnc(-c3ccccc3)nc1C2` was 907 s. Molecule `Cc1ccc2c(Nc3ccc(S(N)(=O)=O)cc3)c(C(=O)N3CCSCC3)cnc2n1` returned an RP-LC retention time of 1370 s. Regarding `Cc1nc(-c2ccc3c(c2)n(CC(=O)Nc2ccc(S(N)(=O)=O)cc2)c(=O)n3C(C)C)no1`, the RP-LC retention time came to 707 s. The value for `COc1cccc(CNS(=O)(=O)c2cc(-c3cc(C(F)(F)F)on3)sc2C)c1` was 1120 s. `COc1ccc2ncc(C#N)c(Nc3cc(OC)c(OC)c(OC)c3)c2c1` registered an RP-LC retention time of 626 s.

Regarding `Cc1ncc(-c2nc(-c3ccccc3)cs2)c(=O)n1CC(=O)N1CCCC1`, the RP-LC retention time was determined as 827 s. On to `Cn1ccnc1SCC(=O)Nc1nc(-c2ccc(Cl)cc2)cs1`, for which the RP-LC retention time is 690 s. For `CN1CCN(c2c(F)cc(C(=O)Nc3nc(-c4ccccc4)cs3)c(F)c2F)CC1`, the RP-LC retention time came out at 750 s. Turning to `CC(=O)Nc1cccc(C(=O)NCCc2c[nH]c3ccc(Cl)cc23)c1`, the RP-LC retention time was 736 s.

In the case of `Cc1sc2cc(C(=O)N3CCN(c4ccccn4)CC3)[nH]c2c1CN1CCCC1`, the RP-LC retention time was 558 s. As to `CCOC(=O)C1CCN(C(=O)c2nc(N3CCCC3)c3c(C)cc(C)nc3n2)CC1`, the RP-LC retention time worked out at 631 s.

`CCOc1ccccc1NC(=O)NCCn1c(C(F)(F)F)nc2cccnc21` gave an RP-LC retention time of 799 s.

Regarding `Cc1ccc(C(=O)NCc2nc(-c3ccc4c(c3)oc(=O)n4C(C)C)no2)cc1`, the RP-LC retention time was 871 s. In turn, `CCOC(=O)C(CC)Oc1cc(O)c2c(=O)cc(-c3ccccc3)oc2c1` (stereo not given) registered an RP-LC retention time of 760 s. On to `COc1ccc2c(CCNC(=O)c3ccc4c(c3)OCCO4)c[nH]c2c1`, for which the RP-LC retention time turned out to be 684 s. Consider `COCc1nc2cccnc2n1C1CCN(C(=O)Nc2ccccc2)CC1`, for which the RP-LC retention time is 680 s. For the molecule `O=C(Cn1nc(C(=O)N2CCCC2)c2ccccc21)NCc1cccnc1`, the RP-LC retention time is 580 s.

The molecule `CCCNS(=O)(=O)c1ccc(-c2cc(C(F)(F)F)on2)o1` returned an RP-LC retention time of 1010 s. To `CCC1CN2C=NC(N3CCN(C(=O)c4ccccc4)CC3)=CC2=N1` (stereo not given) belongs 611 s; to `Cc1cc(C)n(CCNS(C)(=O)=O)n1`, 534 s. Molecule `O=C(CC1CCN(C(=O)c2ccc3oc(C4CC4)nc3c2)CC1)NCC1CCCO1` (stereo not given) displayed an RP-LC retention time of 640 s. The molecule `CC1=C(c2ccccc2)S(=O)(=O)N=C1N1CCCN(C(=O)c2ccc(F)c(F)c2)CC1` displayed an RP-LC retention time of 900 s. To `CS(=O)(=O)N1CCCc2ccc(NC(=O)Nc3ccc(Cl)c(Cl)c3)cc21` belongs 971 s.

For `CC(C)Cn1c(=O)c(C(=O)NCc2ccc(N3CCCCC3)cc2)nc2cccnc21`, the RP-LC retention time worked out at 666 s. In the case of `CC(CNC(=O)c1cn(C)nc1S(=O)(=O)N1CCSCC1)c1ccccc1` (stereo not given), the RP-LC retention time amounted to 1120 s. `O=C(Cn1cnc(-c2noc(-c3ccncc3)n2)c1)NCc1ccc(Cl)cc1`: the RP-LC retention time was 695 s. For `CN1C(=O)c2cc(C(=O)N3CCN(c4ccccc4F)CC3)nn2CC1(C)C(=O)NC1CCCCC1` (stereo not given), the RP-LC retention time came to 834 s. Regarding `COc1ccc(-c2ccc(=O)n(CCCNC(=O)c3ccc(C(F)(F)F)cc3)n2)cc1`, the RP-LC retention time came out at 824 s. The value for `COc1ccc(Cl)c2c(=O)c3c([nH]c12)CCN(CC(=O)NCc1ccccc1F)C3` was 625 s; that for `CCN1CCCn2cc(S(=O)(=O)N3CCOCC3)cc2C1=O` was 614 s; that for `CC(C)c1ccc(-n2ccnc(NC(=O)Nc3cccc(Cl)c3)c2=O)cc1` was 1240 s. Molecule `Cc1[nH]nc(-c2c(C)sc(C)c2S(=O)(=O)Nc2cccc(Br)c2)c1C` gave an RP-LC retention time of 1130 s. Molecule `CC(C)c1noc(-c2cccnc2N2CCCN(Cc3c(F)cccc3Cl)CC2)n1` had an RP-LC retention time of 721 s. `Cc1cc2c(c(=O)n(-c3ccc(F)cc3)c(=O)n2CC(=O)Nc2cc(F)ccc2F)n1C` came in with an RP-LC retention time of 875 s. In the case of `Cc1cc2c(SCC(=O)N3CCCc4ccccc43)ncnc2s1`, the RP-LC retention time turned out to be 950 s. In the case of `O=C(Nc1nc(-c2ccccc2)cs1)NC1CCCCC1`, the RP-LC retention time is 991 s.

`Cc1ccc(S(=O)(=O)N2CCC(n3c(-c4ccco4)nc4cccnc43)C2)cc1` (stereo not given) registered an RP-LC retention time of 863 s. To `CN(C)c1ccc(C(CNC(=O)c2ccc(Br)o2)N2CCOCC2)cc1` (stereo not given) belongs 626 s; to `O=C(Cn1ccc2ccc(N3CCCCC3)nc21)NCc1ccc(F)cc1Cl`, 991 s; to `CCc1noc(NC(C)=O)c1-c1ccc(C)c(S(=O)(=O)Nc2ccccc2F)c1`, 798 s. As for `COc1ccccc1NC(=O)Nc1cc(C(C)C)ccc1C`, the RP-LC retention time came to 1160 s. Consider `CC(C)c1cc(C(=O)Nc2ccccc2)nc2ccnn12`, for which the RP-LC retention time worked out at 1080 s. The value for `O=C(NCCC1CCN(C(=O)Nc2cc(F)cc(F)c2)CC1)c1ccoc1` was 798 s; that for `O=C(CN1C(=O)c2cccc3cccc(c23)C1=O)NCc1ccc2c(c1)OCO2` was 747 s; that for `COc1ccc(C(O)CN2CCN(c3ccccc3F)CC2)cc1OC` (stereo not given) was 642 s.

Consider `CC1CCCC(C)N1CCCNC(=O)C1CCCN(c2ncnc3c2nc2n3CCCCC2)C1` (stereo not given), for which the RP-LC retention time stood at 592 s. The molecule `CC1CCC(NC(=O)C2CCN(C(=O)c3ncn4c3COC(c3ccc(Cl)cc3)C4)CC2)CC1` (stereo not given) displayed an RP-LC retention time of 880 s. In turn, `O=C(Oc1ccc[nH]c1=O)c1cccc(Cl)c1` showed an RP-LC retention time of 756 s. For `O=c1n(CC2CC2)nc2n1CCN(Cc1ccncc1)C2`, the RP-LC retention time came to 511 s. For the molecule `O=C1CCC(C(=O)N2CCN(c3ccc(-n4cccn4)nn3)CC2)N1` (stereo not given), the RP-LC retention time was found to be 548 s. `Cc1noc([C@@H]2CC(F)(F)CN2C(=O)c2cnco2)n1` returned an RP-LC retention time of 667 s.

`COc1ccc(OC)c(C2NC(=O)NC(C)=C2C(=O)OCC(F)(F)C(F)(F)F)c1` (stereo not given) gave an RP-LC retention time of 801 s.

For `CSc1ccc(NC(=O)CCl)cc1`, the RP-LC retention time stood at 751 s. Molecule `CCCN(CC1CCOC1)C(=O)c1ccccc1Cl` (stereo not given) returned an RP-LC retention time of 788 s. Consider `CCOc1ccc(CC(=O)Nc2cc(-c3cccnc3)no2)cc1`, for which the RP-LC retention time was 760 s.

Regarding `Cc1cc(-c2c(C)sc(C)c2S(=O)(=O)Nc2cccc(Cl)c2)n[nH]1`, the RP-LC retention time was 1110 s.

In turn, `O=C(NC1CCCC1)C1CCN(C(=O)C2Sc3ccccc3NC2=O)CC1` (stereo not given) registered an RP-LC retention time of 697 s. Consider `CCOC(=O)c1noc2nc(C)nc(NCC3CCN(CCc4ccc(F)cc4)CC3)c12`, for which the RP-LC retention time was 741 s. The molecule `O=C(Nc1nc(CC(=O)N2CCN(c3ccccc3O)CC2)cs1)c1cnccn1` displayed an RP-LC retention time of 612 s. Molecule `CCOCC(=O)N1CCC(N2CC(OCC3CC3)C23CCCCC3)CC1` (stereo not given) came in with an RP-LC retention time of 644 s. The molecule `CCOC(=O)CNC(=O)N1CCCN(C2=NS(=O)(=O)C(c3ccc(C)cc3)=C2C)CC1` returned an RP-LC retention time of 743 s. Take `Cn1cccc1C(=O)N1CCC(COc2ccc(C(=O)N3CCCCC3)cc2)CC1`: the RP-LC retention time was found to be 897 s. As for `O=C(c1ccc2c(c1)CCC(=O)N2Cc1ccccc1)N1CCN(c2ccc(F)cc2)CC1`, the RP-LC retention time worked out at 923 s.

For `O=C(Cn1nc2n(c1=O)CCCC2)N1CCN(c2ccccc2F)CC1`, the RP-LC retention time was determined as 679 s. As for `Cc1ccnc(Nc2nc(-c3ccc(C)c(C)c3)cs2)c1`, the RP-LC retention time came out at 902 s.

Consider `Cc1cccc(CN2CCCn3nc(C(=O)NCCc4cccs4)cc3C2=O)c1`, for which the RP-LC retention time was determined as 820 s. `CCN(CC)S(=O)(=O)c1ccc(C(=O)Nc2nc3c(s2)CCc2ccccc2-3)cc1` registered an RP-LC retention time of 738 s. The molecule `O=C(CN1C(=O)NC2(CCCCC2)C1=O)Nc1ccc(Cl)cc1F` returned an RP-LC retention time of 809 s. In turn, `COc1cccc(NC(=O)Cc2csc3nc(-c4ccc(OC)c(OC)c4)cn23)c1` came in with an RP-LC retention time of 780 s. In turn, `O=S(=O)(NCCc1ccsc1)c1cccnc1` gave an RP-LC retention time of 686 s.
